Consider 16 compounds from the NIST ThermoML archive (doi:10.1021/je0256481).

± gives the expanded uncertainty stated by the source.

The series is described as follows: activity coefficient (dimensionless); of the first substance listed, at infinite dilution; xn = mol fraction of the nth substance listed. The settings on record: Liquid, x1 = 0.

On to `C#CCCCCCC` [1-octyne] + CCCCCCn1cc[n+](C)c1.F[P-](F)(F)(F)(F)F, for which the activity coefficient (313.15 K) came to 5.86 ± 0.54 and the activity coefficient (323.15 K) amounted to 5.81 ± 0.53.
With `CCCCCC` [hexane] + CCCCCCn1cc[n+](C)c1.F[P-](F)(F)(F)(F)F, the activity coefficient runs as follows: (298.15 K) 22.5 ± 5.4; (313.15 K) 19.2 ± 4.4; (323.15 K) 15 ± 3.
The matching figures for `C1CCCCC1` [cyclohexane] + CCCCCCn1cc[n+](C)c1.F[P-](F)(F)(F)(F)F: 12.7 ± 1.2, 10.6 ± 0.97 and 9.38 ± 0.86.
Consider `CCCCCCC` [heptane] + CCCCCCn1cc[n+](C)c1.F[P-](F)(F)(F)(F)F, for which the activity coefficient came to 30.6 ± 2.8 (298.15 K), 25.7 ± 2.4 (313.15 K) and 22.2 ± 2 (323.15 K).
The like results for `CCCCC` [pentane] + CCCCCCn1cc[n+](C)c1.F[P-](F)(F)(F)(F)F were, in that order, 13.7 ± 2.7, 12.2 ± 2.4 and 8.48 ± 1.4.
The matching figures for `CO` [methanol] + CCCCCCn1cc[n+](C)c1.F[P-](F)(F)(F)(F)F: 1.94 ± 0.17, 1.6 ± 0.13 and 1.44 ± 0.11.
Take `C#CCCCC` [1-hexyne] + CCCCCCn1cc[n+](C)c1.F[P-](F)(F)(F)(F)F: the activity coefficient came to 2.78 ± 0.25 (313.15 K) and 2.82 ± 0.26 (323.15 K).
Take `C1CCCCCC1` [cycloheptane] + CCCCCCn1cc[n+](C)c1.F[P-](F)(F)(F)(F)F: the activity coefficient (313.15 K) turned out to be 14.2 ± 1.3 and the activity coefficient (323.15 K) worked out at 11.8 ± 1.1.
As to `C=CCCCCC` [1-heptene] + CCCCCCn1cc[n+](C)c1.F[P-](F)(F)(F)(F)F, the activity coefficient (298.15 K) is 15.3 ± 1.4, the activity coefficient (313.15 K) worked out at 13.8 ± 1.3 and the activity coefficient (323.15 K) came out at 12.4 ± 1.1.
For the compound `C#CCCCCC` [1-heptyne] + CCCCCCn1cc[n+](C)c1.F[P-](F)(F)(F)(F)F, the activity coefficient (313.15 K) is 4.03 ± 0.37 and the activity coefficient (323.15 K) was determined as 4.07 ± 0.37.
On to `CCCCCCCC` [octane] + CCCCCCn1cc[n+](C)c1.F[P-](F)(F)(F)(F)F, for which the activity coefficient came to 44.7 ± 4.2 (298.15 K), 37.1 ± 3.5 (313.15 K) and 32 ± 3 (323.15 K).
The matching figures for `c1ccccc1` [benzene] + CCCCCCn1cc[n+](C)c1.F[P-](F)(F)(F)(F)F: 1.03 ± 0.05, 1.04 ± 0.06 and 1.07 ± 0.06.
The matching figures for `C=CCCCCCC` [oct-1-ene] + CCCCCCn1cc[n+](C)c1.F[P-](F)(F)(F)(F)F: 21.9 ± 2, 19.5 ± 1.8 and 18 ± 1.7.
Regarding `C1CCCC1` [cyclopentane] + CCCCCCn1cc[n+](C)c1.F[P-](F)(F)(F)(F)F, the activity coefficient came to 8.53 ± 0.78 (298.15 K), 7.21 ± 0.66 (313.15 K) and 6.08 ± 0.56 (323.15 K).
The like results for `C=CCCCC` [hex-1-ene] + CCCCCCn1cc[n+](C)c1.F[P-](F)(F)(F)(F)F were, in that order, 10.4 ± 0.96, 9.09 ± 0.83 and 7.88 ± 0.72.
`C1CCCCCCC1` [cyclooctane] + CCCCCCn1cc[n+](C)c1.F[P-](F)(F)(F)(F)F: the activity coefficient is, setting by setting: (313.15 K) 18.7 ± 1.7; (323.15 K) 12.2 ± 1.1.
